Experiment [1] has as its target T1, SaMhqR (Staphylococcus aureus, UniProt W8U802).
T1 construct: gene ACR79_11795; full-length (144 amino acids), C-terminal His-tag, homodimer
The experiment is described as follows: crystal structure (co-crystallized with MHQ, oxidized to MBQ) and ITC. Type of experiment: binding.

Experiment [2] concerns the target T1, SaMhqR. In words: ITC. The experiment is classed as binding.

T1 sequence (W8U802 entry or part of it): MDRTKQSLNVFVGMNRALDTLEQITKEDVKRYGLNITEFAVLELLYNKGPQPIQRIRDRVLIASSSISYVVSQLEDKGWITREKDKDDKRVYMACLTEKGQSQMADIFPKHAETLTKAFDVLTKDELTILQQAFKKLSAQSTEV

Compound `CC1=CC(=O)C=CC1=O` [MBQ, 2-methylbenzoquinone] registered a Kd on SaMhqR [1] of about 3 µM. In the case of `Cc1cc(O)ccc1O` [MHQ, 2-methylhydroquinone], at SaMhqR [2], the Kd was about 6 µM.

For the origin of these results see publication PMC12893000, “Structural basis of quinone sensing by the MarR-type repressor MhqR in Staphylococcus aureus” (mBio, 2025).
